Key:
[1] = test system: PC-3 human prostate tumour xenograft; assay: Nude mouse model of human PC-3 prostate tumours; format: in vivo, nude mice; settings: PC-3 xenograft
Method: Initial Maximum Tolerated Dose (MTD) studies were done in male nude mice to determine the appropriate intravenous dosing regimen for the PC-3 human prostate tumour model. A range of doses between 0 and 50 mg/Kg for 28 days (qdx28) were tested. Mice were randomized into groups with 5 animals per group including vehicle control. Animals were weighed twice weekly starting on day one and observed daily for adverse reactions or toxicity due to the agent. MTD studies determined the selection of 20 mg/kg and 35 mg/kg for intravenous dosing once per day for 28 days in the PC-3 human prostate tumour xenograft model.
Male nude mice (nu/nu) between 5 and 6 weeks of age weighing approximately 25 g were implanted subcutaneously (s.c) by trocar with fragments of PC-3 human tumour carcinomas harvested from s.c growing tumours in host mice. PC-3, is a metastatic human prostate adenocarcinoma cell line originating from a person. When tumours reached approximately 36 mm^3 in size animals were pair matched into treatment and control groups with 10 mice in each group. […]
At the end of the treatment period the mice were weighed and sacrificed. Each tumour was excised and weighed and a mean actual tumour weight (mg) per group was calculated along with the mean actual volume ([…]). […] Mean tumour regression was determined using the formula [1−(mean actual tumour weightFINAL/mean tumour weightDAY 1)×100%].

[2] = Human hepatocyte microsomal degradation half-life; format: in vitro ADME
Method: the final concentration of ACN in the microsomal incubation was 1%,
samples were incubated in a water bath at 37° C., and
45 μL aliquots were taken over 2 hr, quenched with ACN, placed on ice for 30 min to precipitate proteins and assayed by LC/MS/MS using either the Quattro Ultima Pt, LCT or Q-T of instruments.

MCF—7 cell line = assay: Cell proliferation assay (CellTiter 96 AQueous One) as indicator of toxicity, MCF-7; format: cell-based; settings: MCF—7, 100 μM
Method: A simple cell proliferation assay was used to determine the in vitro cytotoxicity of “compound 1.” Selected cell lines were cultured according to their specific requirements. The optimal cell density required for each cell line was determined. All compounds were tested at a single concentration in triplicate. Cell viability was determined using the CellTiter 96® AQueous One reagent from Promega Corporation.
Assays are performed by adding the test compound to the cells in culture and incubating the cells for a fixed period. The number of viable cells remaining after the incubation period is determined by adding a small amount of the CellTiter 96® AQueous One Solution Reagent directly to culture wells, incubating for 1-4 hours and then recording absorbance at 490 nm with a 96 well plate reader.
Controls in the assay include untreated cells, wells without cells and cells treated with know cytotoxic agents. Data is presented as % inhibition of cell proliferation.

in vitro = settings: human, Caco-2
Method: The Caco-2 assay was performed according to the procedure described in the following cited article [Caco-2 Monolayers in Experimental and Theoretical Predictions of Drug Transport, Artursson P, Palm K, Luthman K., Adv. Drug Deliv. Rev., 2001, 46, 27-43].

[3] = Solubility of salts of compound 1; format: physicochemical; settings: Water, overnight; listed as Free Base (Compound 1)
SSTR-1 = target: T1, SSTR-1 (Homo sapiens, UniProt P30872); assay: Radioligand binding screen against somatostatin subtype SSTR-1; settings: concentration required to displace 50% of the competitive radioligand; read-out: IC50 SSTR1
T1 construct: expressed in transfected cells
T1 sequence (P30872 whole entry, species assumed): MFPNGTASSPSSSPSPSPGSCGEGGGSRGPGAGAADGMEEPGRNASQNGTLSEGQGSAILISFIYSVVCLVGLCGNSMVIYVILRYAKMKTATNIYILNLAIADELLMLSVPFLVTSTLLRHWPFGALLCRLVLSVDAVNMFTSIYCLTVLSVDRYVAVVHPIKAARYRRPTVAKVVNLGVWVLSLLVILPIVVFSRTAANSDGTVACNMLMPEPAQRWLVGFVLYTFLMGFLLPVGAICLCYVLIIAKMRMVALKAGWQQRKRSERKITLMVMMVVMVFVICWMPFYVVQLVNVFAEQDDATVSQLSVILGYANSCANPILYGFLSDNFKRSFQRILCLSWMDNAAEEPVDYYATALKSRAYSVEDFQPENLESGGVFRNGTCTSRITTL
Method: (§1) Receptor membrane preparations containing the desired cloned receptor (for example cloned human somatostatin receptor subtype 5, SSTR5) and radio-labeled ligand (for example 3-[^125I]iodotyrosyl^11 Somatostatin-14)) were diluted at the concentration required for testing and according to the specific parameters associated with the selected receptor-ligand combination, including receptor Bmax, ligand Kd and any other parameters necessary to optimize the experimental conditions. When tested for competition activity to the reference ligand, “compound 1” was mixed with membrane suspension and the radiolabeled reference ligand (with or without an excess of cold ligand to the receptor for determination of non-specific binding) and incubated at the temperature required by internal standard operating procedures. Following incubation, the binding reaction was stopped by the addition of ice-cold washing buffer and filtered on appropriate filters, which are then counted. Data analysis and curve-fitting was performed with XLfit (IDBS).
(§2) 10 mM solutions of test compounds in 100% DMSO were prepared. ˜160 μl was used for each dilution (20 μl/well in triplicate).
(§3) A 1.25 mM assay stock was prepared by making a 1:8 dilution of the 10 mM solution. (To 30 μL of the 10 mM solution was added 210 μL milli-Q H2O. A 1:5 dilution series in milli-Q H2O was then prepared.
(§4) In primary screening experiments compounds were tested in duplicate for a particular concentration.

SSTR-2 = target: T2, SSTR-2 (Homo sapiens, UniProt P30874); assay: Radioligand binding screen against somatostatin subtype SSTR-2
T2 construct: expressed in transfected cells
T2 sequence (P30874 whole entry): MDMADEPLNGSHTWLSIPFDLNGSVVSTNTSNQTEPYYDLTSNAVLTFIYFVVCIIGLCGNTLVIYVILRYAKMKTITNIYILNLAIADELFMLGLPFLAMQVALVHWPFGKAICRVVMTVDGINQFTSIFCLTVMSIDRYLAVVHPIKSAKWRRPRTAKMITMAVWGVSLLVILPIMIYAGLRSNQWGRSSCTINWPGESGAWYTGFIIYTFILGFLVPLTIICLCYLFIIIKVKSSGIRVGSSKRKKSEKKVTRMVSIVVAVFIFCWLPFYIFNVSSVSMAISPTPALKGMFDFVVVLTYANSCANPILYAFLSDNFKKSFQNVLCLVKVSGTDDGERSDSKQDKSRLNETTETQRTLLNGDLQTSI
Method: as §1, §2, §3, §4

SSTR-4 = target: T3, SSTR-4 (Homo sapiens, UniProt P31391); assay: Radioligand binding screen against somatostatin subtype SSTR-4 (SST4 assay); settings: concentration required to displace 50% of the competitive radioligand; read-out: IC50 SSTR4
T3 construct: expressed in transfected cells
T3 sequence (P31391 whole entry): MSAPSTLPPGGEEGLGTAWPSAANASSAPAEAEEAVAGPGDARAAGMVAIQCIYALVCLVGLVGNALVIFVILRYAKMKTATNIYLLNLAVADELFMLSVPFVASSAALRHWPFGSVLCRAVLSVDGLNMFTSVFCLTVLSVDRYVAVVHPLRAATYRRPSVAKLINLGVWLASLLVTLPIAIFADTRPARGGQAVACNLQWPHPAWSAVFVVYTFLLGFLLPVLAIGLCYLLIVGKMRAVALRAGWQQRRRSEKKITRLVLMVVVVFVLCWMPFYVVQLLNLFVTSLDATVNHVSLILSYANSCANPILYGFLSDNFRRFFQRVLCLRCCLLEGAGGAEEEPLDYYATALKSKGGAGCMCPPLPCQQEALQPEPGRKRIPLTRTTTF
Method: as §1, §2, §3
Assays were performed in triplicate at each concentration within the 1:5 dilution series: 250 μM, 50 μM, 10 μM, […], 0.4 μM, 0.08 μM, 0.016 μM, 0.0032 μM, etc. (for SST4 assay) and 125 μM, 10 μM, 2 μM, 1 μM, 0.5 μM, etc (for SST5 assay).
as §4

HUVEC tube formation = assay: Matrigel tube formation assay; format: cell-based, human; settings: Homo sapiens, 22 h
Method: HUVEC (Clonetics) were plated in 96 well plates in EGM-2 media (Clonetics) at 2.5 to 3×10^4 cells per well. Cells of less than 6 passages were used in all studies. Wells were precoated with 50 μL growth factor containing Matrigel (Becton Dickinson). HUVEC were allowed to form tubes by incubation at 37° C. in 5% CO2 for 22 hrs. In test wells compound was added in the desired concentration. Photographic images of the wells ×4 magnification were used to determine size of the tubes, length of tubes and number of junctions using image analysis software.

[4] = predicted from human microsomal degradation

COC[C@H]1O[C@H](OCCc2ccccc2)[C@H](NC(=O)CCCN)[C@@H](OCc2ccc3ccccc3c2)[C@@H]1O [Compound 1]
Tumour growth inhibition (TGI) ([1]; 20 mg/kg i.v. daily): 34% | Tumour growth inhibition (TGI) ([1]; 35 mg/kg i.v. daily): 34% | CLint scaled ([2]; human hepatocyte microsomes, pH 7.4, predicted from human microsomal degradation): 62.2 mL/min/kg | half-life ([2]; human hepatocyte microsomes, human microsomal incubation, 37° C., pH 7.4, read-out: Degradation t1/2): 32.2 min | Predicted CLblood [2, 4]: 15.5 mL/min/kg | Predicted EH [2, 4]: 0.75 | Inhibition of cell proliferation (MCF—7 cell line): no inhibitory effect | Papp (in vitro): 1.04 ×10⁻⁶ cm/s | Solubility in Water [3]: >200 µg/mL | IC50 (SSTR-1): > 12.5 µM | IC50 (SSTR-2; concentration required to displace 50% of the competitive radioligand, read-out: IC50 SSTR2): 7.5 µM | selectivity SSTR2 (SSTR-2; normalized IC50: lowest IC50 for a compound = 1): 23.2 | Hillslope SSTR2 (SSTR-2; slope of binding curve): 1.2 | IC50 (SSTR-4): > 12.5 µM | EC50 (HUVEC tube formation): 250 µM
